The text below walks through data of patent US12122761B2, “2-azaspiro[3.4]octane derivatives as M4 agonists” (NOVARTIS AG, priority 2019, dated 2024).

pEC50: −log10 of the molar value.

In this test the target is T1, human cloned CHRM4 receptor (M4_CHO cells) (Homo sapiens, UniProt P08173).
T1 construct: expressed in transfected cells; host or cells: CHO-K1
T1 sequence (P08173 1-479): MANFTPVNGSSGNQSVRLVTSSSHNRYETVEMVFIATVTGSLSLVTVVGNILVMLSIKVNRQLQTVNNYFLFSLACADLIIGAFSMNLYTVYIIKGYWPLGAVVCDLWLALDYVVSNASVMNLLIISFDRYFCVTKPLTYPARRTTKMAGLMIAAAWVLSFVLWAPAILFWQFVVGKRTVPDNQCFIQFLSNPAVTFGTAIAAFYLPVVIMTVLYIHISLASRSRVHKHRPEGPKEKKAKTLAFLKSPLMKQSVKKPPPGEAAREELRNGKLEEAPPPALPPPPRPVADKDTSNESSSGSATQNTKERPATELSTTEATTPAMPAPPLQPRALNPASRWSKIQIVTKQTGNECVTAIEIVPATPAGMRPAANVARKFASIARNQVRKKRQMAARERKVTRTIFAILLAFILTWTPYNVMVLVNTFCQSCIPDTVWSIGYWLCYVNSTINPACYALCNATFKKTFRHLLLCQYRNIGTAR
Kind of test: CHRM4 Ca++ Flux Assay (agonist mode, FDSS 7000EX). Type of test: cell-based. The note with it: for Emax: Percent Activity, read-out: M4 FDSS PA; for pEC50: geometric mean if tested more than once, read-out: M4 FDSS EC50. The gist of the method: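 Agonist-mode response was expressed as percent of the Carbachol EC100 and fitted with four-parameter nonlinear regression over an 11-point triplicate dose series. Intracellular Ca++ was tracked for 3 min by fluorescent dye in CHO-K1 cells stably expressing human CHRM4. Cells were preincubated 60 min with 20 μM ATP in buffer containing 2.5 mM probenecid.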

For orientation: pEC50 means the negative decadic logarithm of the EC50, by convention in mol/L.

For the molecule `c1ccc(C2CCN([C@@H]3CCC4(C3)CN(c3nnco3)C4)CC2)c(CC2CCOCC2)c1` [Example 2L, (R)-2-(6-(4-(2-((tetrahydro-2H-pyran-4-yl)methyl)phenyl)piperidin-1-yl)-2-azaspiro[3.4]octan-2-yl)-1,3,4-oxadiazole], the Emax stood at 77% and the pEC50 was 7.96.
Turning to `c1ccc(C2CCN([C@@H]3CCC4(C3)CN(c3nnco3)C4)CC2)c(-c2ncco2)c1` [Example 2M, (R)-2-(6-(4-(2-(oxazol-2-yl)phenyl)piperidin-1-yl)-2-azaspiro[3.4]octan-2-yl)-1,3,4-oxadiazole], the Emax was 82% and the pEC50 is 8.22.
As to `c1ccc(C2CCN([C@@H]3CCC4(C3)CN(c3nncs3)C4)CC2)c(OC2COC2)c1` [Example 3A, (R)-2-(6-(4-(2-(oxetan-3-yloxy)phenyl)piperidin-1-yl)-2-azaspiro[3.4]octan-2-yl)-1,3,4-thiadiazole], the Emax is 88% and the pEC50 was above 9.40.
As for `c1ccc(C2CCN([C@@H]3CCC4(C3)CN(c3nncs3)C4)CC2)c(OC[C@H]2COCCO2)c1` [Example 3B, 2-((R)-6-(4-(2-(((R)-1,4-dioxan-2-yl)methoxy)phenyl)piperidin-1-yl)-2-azaspiro[3.4]octan-2-yl)-1,3,4-thiadiazole], the Emax is 70% and the pEC50 is 9.00.
On to `c1ccc(C2CCN([C@@H]3CCC4(C3)CN(c3nncs3)C4)CC2)c(OC[C@@H]2COCCO2)c1` [Example 3C, 2-((R)-6-(4-(2-(((S)-1,4-dioxan-2-yl)methoxy)phenyl)piperidin-1-yl)-2-azaspiro[3.4]octan-2-yl)-1,3,4-thiadiazole], for which the Emax came to 66% and the pEC50 was 8.70.
For the molecule `COc1ccccc1C1CCN([C@@H]2CCC3(C2)CN(c2nncs2)C3)CC1` [Example 3D, (R)-2-(6-(4-(2-methoxyphenyl)piperidin-1-yl)-2-azaspiro[3.4]octan-2-yl)-1,3,4-thiadiazole], the Emax is 71% and the pEC50 was 8.70.
The corresponding values for `Fc1cccc(C2CCN([C@@H]3CCC4(C3)CN(c3nncs3)C4)CC2)c1OC1COC1` [Example 3E, (R)-2-(6-(4-(3-fluoro-2-(oxetan-3-yloxy)phenyl)piperidin-1-yl)-2-azaspiro[3.4]octan-2-yl)-1,3,4-thiadiazole] are 87% and 8.52.
For `COCCOc1ccccc1C1CCN([C@@H]2CCC3(C2)CN(c2nncs2)C3)CC1` [Example 3F, (R)-2-(6-(4-(2-(2-methoxyethoxy)phenyl)piperidin-1-yl)-2-azaspiro[3.4]octan-2-yl)-1,3,4-thiadiazole], the Emax came out at 60% and the pEC50 is 8.22.
On to `CC(C)(O)COc1ccccc1C1CCN([C@@H]2CCC3(C2)CN(c2nncs2)C3)CC1` [Example 3G, (R)-1-(2-(1-(2-(1,3,4-thiadiazol-2-yl)-2-azaspiro[3.4]octan-6-yl)piperidin-4-yl)phenoxy)-2-methylpropan-2-ol], for which the Emax was 57% and the pEC50 was 8.15.
Consider `CC(C)(O)CCOc1ccccc1C1CCN([C@@H]2CCC3(C2)CN(c2nncs2)C3)CC1` [Example 3H, (R)-4-(2-(1-(2-(1,3,4-thiadiazol-2-yl)-2-azaspiro[3.4]octan-6-yl)piperidin-4-yl)phenoxy)-2-methylbutan-2-ol], for which the Emax turned out to be 48% and the negative logarithm of the EC50 (pEC50) was 8.10.
As to `COc1ccccc1C1CCN([C@@H]2CCC3(C2)CN(c2ccns2)C3)CC1` [Example 3I, (R)-5-(6-(4-(2-methoxyphenyl)piperidin-1-yl)-2-azaspiro[3.4]octan-2-yl)isothiazole], the Emax stood at 70% and the pEC50 was 9.00.
The corresponding values for `COCCOc1ccccc1C1CCN([C@@H]2CCC3(C2)CN(c2ncns2)C3)CC1` [Example 3J, (R)-5-(6-(4-(2-(2-methoxyethoxy)phenyl)piperidin-1-yl)-2-azaspiro[3.4]octan-2-yl)-1,2,4-thiadiazole] are 57% and 8.40.
For `CC(C)(O)COc1ccccc1C1CCN([C@@H]2CCC3(C2)CN(c2ncns2)C3)CC1` [Example 3K, (R)-1-(2-(1-(2-(1,2,4-thiadiazol-5-yl)-2-azaspiro[3.4]octan-6-yl)piperidin-4-yl)phenoxy)-2-methylpropan-2-ol], the Emax came out at 68% and the pEC50 is 8.30.
For the molecule `CC(C)(O)CCOc1ccccc1C1CCN([C@@H]2CCC3(C2)CN(c2ncns2)C3)CC1` [Example 3L, (R)-4-(2-(1-(2-(1,2,4-thiadiazol-5-yl)-2-azaspiro[3.4]octan-6-yl)piperidin-4-yl)phenoxy)-2-methylbutan-2-ol], the Emax was 34% and the negative-log EC50 (pEC50) was 7.72.
For the molecule `COc1ccccc1C1CCN([C@@H]2CCC3(C2)CN(c2nc(C)ns2)C3)CC1` [Example 3M, (R)-5-(6-(4-(2-methoxyphenyl)piperidin-1-yl)-2-azaspiro[3.4]octan-2-yl)-3-methyl-1,2,4-thiadiazole], the Emax is 30% and the pEC50 was 7.74.
On to `Fc1cncc(N2CC3(CC[C@@H](N4CCC(c5ccccc5C5CCOCC5)CC4)C3)C2)c1` [Example 5AA, (R)-2-(5-fluoropyridin-3-yl)-6-(4-(2-(tetrahydro-2H-pyran-4-yl)phenyl)piperidin-1-yl)-2-azaspiro[3.4]octane], for which the Emax came out at 83% and the pEC50 is 8.00.
Consider `c1ccc(C2CCN([C@@H]3CCC4(C3)CN(c3cncnc3)C4)CC2)c(C2CCOCC2)c1` [Example 5BB, (R)-2-(pyrimidin-5-yl)-6-(4-(2-(tetrahydro-2H-pyran-4-yl)phenyl)piperidin-1-yl)-2-azaspiro[3.4]octane], for which the Emax amounted to 80% and the pEC50 was 7.77.
On to `Fc1ccc(N2CC3(CC[C@@H](N4CCC(c5ccccc5C5CCOCC5)CC4)C3)C2)cn1` [Example 5CC, (R)-2-(6-fluoropyridin-3-yl)-6-(4-(2-(tetrahydro-2H-pyran-4-yl)phenyl)piperidin-1-yl)-2-azaspiro[3.4]octane], for which the Emax worked out at 84% and the negative-log EC50 (pEC50) was 7.66.
Taken in the same sequence, the figures for `COc1ccccc1C1CCN([C@@H]2CCC3(C2)CN(c2cnc(C)cn2)C3)CC1` [Example 5DD, (R)-6-(4-(2-methoxyphenyl)piperidin-1-yl)-2-(5-methylpyrazin-2-yl)-2-azaspiro[3.4]octane] were 26% and 7.09.
`Cc1nccnc1N1CC2(CC[C@@H](N3CCC(c4ccccc4OCC(C)(C)O)CC3)C2)C1` [Example 5T, (R)-2-methyl-1-(2-(1-(2-(3-methylpyrazin-2-yl)-2-azaspiro[3.4]octan-6-yl)piperidin-4-yl)phenoxy)propan-2-ol]: the Emax was found to be 25% and the pEC50 is 7.20.
For `CC(C)(O)COc1ccccc1C1CCN([C@@H]2CCC3(C2)CN(c2ncncn2)C3)CC1` [Example 5U, (R)-1-(2-(1-(2-(1,3,5-triazin-2-yl)-2-azaspiro[3.4]octan-6-yl)piperidin-4-yl)phenoxy)-2-methylpropan-2-ol], the Emax stood at 49% and the pEC50 is 7.55.
In the case of `COc1ccc(F)cc1C1CCN([C@@H]2CCC3(C2)CN(c2ccnnc2)C3)CC1` [Example 5V, (R)-6-(4-(5-fluoro-2-methoxyphenyl)piperidin-1-yl)-2-(pyridazin-4-yl)-2-azaspiro[3.4]octane], the Emax came to 59% and the pEC50 was 7.70.
